What was measured:
Assay in all cases: relative viability (nuclei count vs DMSO), 5 days (fraction); higher = more cells survive
KN-93 + Navitoclax = compound: CN(C/C=C/C1=CC=C(C=C1)Cl)CC2=CC=CC=C2N(CCO)S(=O)(=O)C3=CC=C(C=C3)OC [KN-93] + CC1(C)CCC(c2ccc(Cl)cc2)=C(CN2CCN(c3ccc(C(=O)NS(=O)(=O)c4ccc(N[C@H](CCN5CCOCC5)CSc5ccccc5)c(S(=O)(=O)C(F)(F)F)c4)cc3)CC2)C1 [Navitoclax] (partner 0.5 µM)
In short: (§1)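 Dosing by pin tool came one day after lung cancer cell lines were seeded in 1536-well plates, using either one drug or a fixed anchor-drug dose plus five library-drug doses (not always all listed) in √10 steps. After 5 days, nuclei were counted on 4× images. Relative viability is treated-well nuclei count divided by vehicle-well nuclei count, and values are medians of duplicate plates.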

KN-93 + Trametinib = compound: CN(C/C=C/C1=CC=C(C=C1)Cl)CC2=CC=CC=C2N(CCO)S(=O)(=O)C3=CC=C(C=C3)OC [KN-93] + CC(=O)Nc1cccc(-n2c(=O)n(C3CC3)c(=O)c3c(Nc4ccc(I)cc4F)n(C)c(=O)c(C)c32)c1 [Trametinib] (partner 0.02 µM)
In short: as §1

KN-93 + Dasatinib = compound: CN(C/C=C/C1=CC=C(C=C1)Cl)CC2=CC=CC=C2N(CCO)S(=O)(=O)C3=CC=C(C=C3)OC [KN-93] + Cc1nc(Nc2ncc(C(=O)Nc3c(C)cccc3Cl)s2)cc(N2CCN(CCO)CC2)n1 [Dasatinib] (partner 0.075 µM)
In short: as §1

KN-93 + Foretinib = compound: CN(C/C=C/C1=CC=C(C=C1)Cl)CC2=CC=CC=C2N(CCO)S(=O)(=O)C3=CC=C(C=C3)OC [KN-93] + COc1cc2c(Oc3ccc(NC(=O)C4(C(=O)Nc5ccc(F)cc5)CC4)cc3F)ccnc2cc1OCCCN1CCOCC1 [Foretinib] (partner 0.25 µM)
In short: as §1

KN-93 + Lapatinib = compound: CN(C/C=C/C1=CC=C(C=C1)Cl)CC2=CC=CC=C2N(CCO)S(=O)(=O)C3=CC=C(C=C3)OC [KN-93] + CS(=O)(=O)CCNCc1ccc(-c2ccc3ncnc(Nc4ccc(OCc5cccc(F)c5)c(Cl)c4)c3c2)o1 [Lapatinib] (partner 2 µM)
In short: as §1

| Cell Line | relative viability (KN-93 + Navitoclax; first compound 0.08 µM) | relative viability (KN-93 + Navitoclax; first compound 0.253 µM) | relative viability (KN-93 + Navitoclax; first compound 2.53 µM) | relative viability (KN-93 + Navitoclax; first compound 8 µM) | relative viability (KN-93 + Trametinib; first compound 0.08 µM) | relative viability (KN-93 + Trametinib; first compound 0.253 µM) | relative viability (KN-93 + Trametinib; first compound 2.53 µM) | relative viability (KN-93 + Trametinib; first compound 8 µM) | relative viability (KN-93 + Dasatinib; first compound 0.08 µM) | relative viability (KN-93 + Dasatinib; first compound 0.253 µM) | relative viability (KN-93 + Dasatinib; first compound 2.53 µM) | relative viability (KN-93 + Dasatinib; first compound 8 µM) | relative viability (KN-93 + Foretinib; first compound 0.08 µM) | relative viability (KN-93 + Foretinib; first compound 0.253 µM) | relative viability (KN-93 + Foretinib; first compound 2.53 µM) | relative viability (KN-93 + Foretinib; first compound 8 µM) | relative viability (KN-93 + Lapatinib; first compound 0.08 µM) | relative viability (KN-93 + Lapatinib; first compound 0.253 µM) | relative viability (KN-93 + Lapatinib; first compound 2.53 µM) | relative viability (KN-93 + Lapatinib; first compound 8 µM) |
| --- | --- | --- | --- | --- | --- | --- | --- | --- | --- | --- | --- | --- | --- | --- | --- | --- | --- | --- | --- | --- |
| LU99A | 0.86 | 0.787 | 0.763 | 0.609 | 0.603 | 0.626 | 0.496 | 0.431 | 0.479 | 0.59 | 0.419 | 0.406 | 0.884 | 0.896 | 0.817 | 0.676 | 1.16 | 1.21 | 0.797 | 0.89 |
| LXF-289 | 0.97 | 1.08 | 0.918 | 0.631 | 0.661 | 0.69 | 0.666 | 0.592 | 0.238 | 0.197 | 0.229 | 0.141 | 0.982 | 1.01 | 0.944 | 0.805 | 0.845 | 0.934 | 1 | 0.737 |
| NCI-H23 | 0.721 | 0.988 | 0.933 | 0.816 | 0.331 | 0.397 | 0.432 | 0.326 | 0.64 | 0.84 | 0.818 | 0.439 | 0.935 | 1.13 | 1.1 | 0.666 | 1.05 | 1.1 | 1.31 | 0.883 |
| NCI-H322M | 1.19 | 1.09 | 1.2 | 1.11 | 0.478 | 0.575 | 0.488 | 0.442 | 0.256 | 0.25 | 0.26 | 0.204 | 0.959 | 0.933 | 0.984 | 0.762 | 0.605 | 0.633 | 0.61 | 0.566 |
| NCI-H460 | 0.39 | 1.29 |  | 0.63 | 0.167 | 0.111 | 0.195 | 0.0953 | 0.489 | 0.526 | 0.726 | 0.35 | 0.715 | 1.06 | 1.02 | 0.591 | 0.302 | 1.27 | 1.12 | 0.45 |
| NCI-H520 |  | 1.13 | 1.23 | 0.878 | 0.591 | 0.783 | 0.682 | 0.641 | 0.203 | 0.197 | 0.258 | 0.155 | 0.885 | 0.952 | 0.768 | 0.711 |  | 0.904 | 1.05 | 0.727 |
| NCI-H596 | 0.996 | 0.891 | 0.966 | 0.575 | 0.708 | 0.847 | 0.836 | 0.586 | 0.607 | 0.642 | 0.587 | 0.421 | 0.862 | 0.989 | 0.886 | 0.532 | 1.05 | 0.945 | 1.23 | 0.985 |
| NCI-H647 | 0.976 | 1.41 | 1.39 | 0.715 | 0.353 | 0.499 | 0.468 | 0.466 | 0.161 | 0.216 | 0.253 | 0.164 | 1.11 | 1.37 | 1.54 | 1.07 | 0.836 | 1.07 | 1.26 | 0.819 |
| NCI-H727 | 0.464 | 0.4 | 0.285 | 0.17 | 0.32 |  | 0.384 | 0.409 | 0.44 | 0.399 | 0.415 | 0.237 | 1.04 | 0.945 | 0.863 | 0.553 | 0.776 | 0.762 | 0.802 | 0.486 |
| NCI-H838 | 1.04 | 1.06 | 1.31 | 0.946 | 0.563 | 0.482 | 0.522 | 0.509 | 0.32 | 0.236 | 0.334 | 0.239 | 0.946 | 0.977 | 1.13 | 0.905 | 0.903 | 0.78 | 1.12 | 0.746 |
| NCI-H1355 | 0.874 | 0.722 | 0.916 | 0.74 | 0.436 | 0.324 | 0.375 | 0.343 | 0.588 | 0.551 | 0.695 | 0.503 | 0.879 | 0.984 | 1.03 | 0.868 | 0.954 | 0.79 | 1.05 | 0.913 |
| NCI-H1395 | 1.11 | 1.22 | 1.34 | 0.566 | 1.03 | 1.19 | 1.07 | 0.775 | 0.428 | 0.402 | 0.708 | 0.31 | 1.09 | 0.934 | 0.964 | 0.697 | 1.63 | 1.11 | 1.04 | 0.679 |
| NCI-H1437 | 0.92 | 1.23 | 1.07 | 0.476 | 0.444 | 0.471 | 0.454 | 0.377 | 0.457 | 0.44 | 0.374 | 0.153 | 1.17 | 1.26 | 1.13 | 0.64 | 0.632 | 0.963 | 0.875 | 0.425 |
| NCI-H1650 | 1.24 | 1.2 | 1.44 | 0.951 | 0.611 | 0.508 | 0.693 | 0.412 | 0.399 | 0.262 | 0.297 | 0.24 | 1.18 | 1.16 | 1.25 | 0.644 | 0.758 | 0.754 | 0.952 | 0.482 |
| NCI-H1651 | 0.997 | 1.08 | 1.09 | 0.482 | 0.79 | 0.886 | 0.689 | 0.683 | 0.491 | 0.461 | 0.626 | 0.246 | 0.669 | 0.845 | 0.886 | 0.582 | 0.732 | 1.02 | 0.914 | 0.664 |
| NCI-H1666 | 0.863 | 0.799 | 0.982 | 0.863 | 0.899 | 0.788 | 1.07 | 0.716 | 0.842 | 0.924 | 0.889 | 0.645 | 0.85 | 0.996 | 1.01 | 0.959 | 0.747 | 0.638 | 0.679 | 0.532 |

From the supplement of paper PMC10307832
